The target of assay [1] is T1, human TDO2 (Homo sapiens (Human), UniProt P48775). The experiment in a line: Assay for TDO2 enzymatic activity determination. The class given is biochemical. Particulars: human recombinant TDO2, L-Trp 1 mM, kynurenine absorbance at 480 nm. The procedure: The compounds of formula I inhibit the enzymatic activity of human TDO2.
To measure the TDO2 activity, the procedure described in Dolusic et al. J. Med. Chem.; 2011, 54, […] was adapted: the reaction mixture contained (final concentrations) potassium phosphate buffer (50 mM, pH 7.5), ascorbic acid (0.25 M), methylene blue (0.125 μM), catalase (40 units/mL, from bovine liver, Sigma), and human recombinant TDO2 enzyme (prepared as described in Dolusic et al. J. Med. Chem.; 2011, 54, 5320-5334; 0.9 μg) without or with the compounds of the present invention at the indicated concentrations (total volume 112.5 μL). The reaction was initiated by the addition of 37.5 μL of L-Trp (final concentration 1 mM) at room temperature. The reaction was conducted at room temperature during one hour and stopped by the addition of 30 μL of 30% (w/v) trichloroacetic acid.
To convert N-formylkynurenine into kynurenine, the reaction mixture was incubated at 65° C. for 30 min. Then 150 μL of the reaction mixture was mixed with 120 μL of 2.5% (w/v) 4-(dimethylamino)-benzaldehyde in acetic acid and incubated for 5 min at room temperature. Kynurenine concentrations were determined by measuring the absorbance at 480 nm. A standard curve was made with pure kynurenine. The TDO activity was measured as described above using ten serial concentrations of the compounds of the present invention. Data were fitted using the Prism™ software (GraphPad Software, Inc.) using standard software configurations.

Assay [2] deals with T1, human TDO2. The experiment in a line: Cellular assay for TDO2 activity, hTDO2-overexpressing P815 cells. The following applies: murine mastocytoma P815 cells overexpressing hTDO2, overnight incubation, kynurenine in supernatant. In kind it is cell-based. The procedure:
The compounds of Formula I inhibit the activity of human TDO2 in cells.
The assay (adapted from Pilotte L et al., Proc Natl Acad Sci USA, 2012, 109(7), 2497-502) was performed in 96-well flat bottom plates seeded with murine mastocytoma P815 cells overexpressing hTDO2 (prepared as described in Pilotte et al., PNAS, 2012, 109(7), 2497-2502), at a concentration of 5×10^4 cells/well in a final volume of 200 μL. To determine TDO or IDO activity, the cells were incubated overnight at 37° C. at 5% CO2 in IMDM (Invitrogen) supplemented with 2% FBS and 2% penicillin/streptomycin in the presence of the compounds of the present invention, at different concentrations. The cells may be obtained from the American Type Cuylture Collecion [ATCC® TIB-64™ or commercially, e.g., from Sigma-Aldrich or Life Technologies.]
(§1) The plates were then centrifuged 5 min at 1000 rpm, and 100 μL of the supernatant were collected in a conical plate, 30 uL of TCA 30% were added and a further centrifugated at 3000×g for 10 minutes. 100 μL of the supernatant were collected in a flat bottomed plate and 100 μL of 2% (w/v) 4-(dimethylamino)-benzaldehyde in acetic acid and incubated for 5 min at room temperature. Kynurenine concentrations were determined by measuring the absorbance at 480 nm. A standard curve was made with pure kynurenine. The TDO activity was measured as described above using ten serial concentrations of the compounds of the present invention. Data were fitted using the Prism™ software (GraphPad Software, Inc.) using standard software configurations.

Assay [3] concerns the target T1, human TDO2. Put plainly: Cellular assay for TDO2 activity, A172 cells naturally expressing hTDO2. The class given is cell-based. Particulars: human glioblastoma A172 cells, overnight incubation, kynurenine in supernatant. The procedure: A172 is a cell line derived from human brain glioblastoma cells.
To determine TDO, the cells were incubated overnight at 37° C. at 5% CO2 in IMDM (Invitrogen) supplemented with 2% FBS and 2% penicillin/streptomycin in the presence of the compounds of the present invention, at different concentrations.
as §1

Counter-ions that a name gives are not always drawn.

T1 sequence (P48775 whole entry): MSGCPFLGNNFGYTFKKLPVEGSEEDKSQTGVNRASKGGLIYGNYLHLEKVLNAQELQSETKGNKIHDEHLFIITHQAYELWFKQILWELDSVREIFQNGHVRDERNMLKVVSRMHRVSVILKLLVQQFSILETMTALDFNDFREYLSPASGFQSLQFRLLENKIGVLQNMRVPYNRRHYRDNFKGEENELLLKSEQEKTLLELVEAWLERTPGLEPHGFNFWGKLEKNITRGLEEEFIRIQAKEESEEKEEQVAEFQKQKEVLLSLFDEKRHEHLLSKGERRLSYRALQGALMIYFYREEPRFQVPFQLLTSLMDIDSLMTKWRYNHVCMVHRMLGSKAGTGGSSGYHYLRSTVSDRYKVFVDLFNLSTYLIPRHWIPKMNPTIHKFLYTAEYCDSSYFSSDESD

On to `Cc1ccc(-c2c[nH]c3cc(F)ccc23)cn1` [Example 1, 6-fluoro-3-(6-methylpyridin-3-yl)-1H-indole], for which the IC50 (as a rule, the midpoint of a concentration-inhibition curve) on human TDO2 [1] amounted to 370 nM; against human TDO2 [2], 180 nM.
Consider `Fc1ccc2c(-c3ccc(OC4CCNCC4)nc3)c[nH]c2c1` [Example 2, 6-fluoro-3-(6-(piperidin-4-yloxy)pyridin-3-yl)-1H-indole], for which the IC50 on human TDO2 [1] worked out at 560 nM.
Same read-out and setting: under `CN1CCC(Oc2ccc(-c3c[nH]c4cc(F)ccc34)cn2)CC1` [Example 3, 6-fluoro-3-(6-(1-methylpiperidin-4-yloxy)pyridin-3-yl)-1H-indole] stands 1200 nM.
Regarding `CN(C)CCOc1ccc(-c2c[nH]c3cc(F)ccc23)cn1` [Example 4, 2-(5-(6-fluoro-1H-indol-3-yl)pyridin-2-yloxy)-N,N-dimethylethanamine], the half-inhibitory concentration (IC50) at human TDO2 [1] stood at 39000 nM; on human TDO2 [2], 680 nM.
For `COc1ccc(-c2c[nH]c3cc(F)ccc23)cn1` [Example 5, 6-fluoro-3-(6-methoxypyridin-3-yl)-1H-indole], in that order: 730 nM and 120 nM.
For `CS(=O)(=O)N1CCC(Oc2ccc(-c3c[nH]c4cc(F)ccc34)cn2)CC1` [Example 6, 6-fluoro-3-(6-(1-(methylsulfonyl)piperidin-4-yloxy)pyridin-3-yl)-1H-indole], on human TDO2 [1], the IC50 was 1300 nM.
Take `CN(C)c1ccc(-c2c[nH]c3cc(F)ccc23)cn1` [Example 7, 5-(6-fluoro-1H-indol-3-yl)-N,N-dimethylpyridin-2-amine]: the 50% inhibitory concentration (IC50) was 380 nM at human TDO2 [1] and 320 nM against human TDO2 [2].
For `Fc1ccc2c(-c3ccc(N4CCOCC4)nc3)c[nH]c2c1` [Example 9, 4-(5-(6-fluoro-1H-indol-3-yl)pyridin-2-yl)morpholine] the same measures were 540 nM and 210 nM.
For `CN1CCN(c2ccc(-c3c[nH]c4cc(F)ccc34)cn2)CC1` [Example 10, 6-fluoro-3-(6-(4-methylpiperazin-1-yl)pyridin-3-yl)-1H-indole], in that order: 720 nM and 130 nM.
For `NCC(=O)N1CCN(c2ccc(-c3c[nH]c4cc(F)ccc34)cn2)CC1` [Example 11, 2-amino-1-(4-(5-(6-fluoro-1H-indol-3-yl)pyridin-2-yl)piperazin-1-yl)ethanone], in that order: 650 nM and 650 nM.
Take `Nc1ccc(-c2c[nH]c3cc(F)c(F)cc23)cn1` [Example 16, 5-(5,6-difluoro-1H-indol-3-yl)pyridin-2-amine]: the IC50 at human TDO2 [1] amounted to 1600 nM.
`CCN1CCC(Nc2ccc(-c3c[nH]c4cc(F)ccc34)cn2)CC1` [Example 18, N-(1-ethylpiperidin-4-yl)-5-(6-fluoro-1H-indol-3-yl)pyridin-2-amine]: the IC50 at human TDO2 [1] was 4800 nM.
Still for that read-out and setting: the result for `CS(=O)(=O)N1CCC(Nc2ccc(-c3c[nH]c4cc(F)ccc34)cn2)CC1` [Example 19, 5-(6-fluoro-1H-indol-3-yl)-N-(1-(methylsulfonyl)piperidin-4-yl)pyridin-2-amine] reads 650 nM; that for `CC(=O)NCCCNc1ccc(-c2c[nH]c3cc(F)ccc23)cn1` [Example 20, N-(3-(5-(6-fluoro-1H-indol-3-yl)pyridin-2-ylamino)propyl)acetamide], 870 nM.
On to `CS(=O)(=O)NCCNc1ccc(-c2c[nH]c3cc(F)ccc23)cn1` [Example 26, N-(2-(5-(6-fluoro-1H-indol-3-yl)pyridin-2-ylamino)ethyl)methanesulfonamide hydrochloride], for which the IC50 at human TDO2 [1] was 710 nM.
`[O-][n+]1cccc(-c2c[nH]c3cc(F)ccc23)c1` [Example 49, 3-(6-fluoro-1H-indol-3-yl)pyridine 1-oxide]: the IC50 on human TDO2 [1] came out at 11000 nM.
For the molecule `O=C1NCCN1c1ccc(-c2c[nH]c3cc(F)ccc23)cn1` [Example 78, 1-(5-(6-fluoro-1H-indol-3-yl)pyridin-2-yl)imidazolidin-2-one], the IC50 amounted to 16000 nM at human TDO2 [1] and 490 nM against human TDO2 [3].

The values above are taken from US9758505B2, “3-(indol-3-yl)-pyridine derivatives, pharmaceutical compositions and methods for use” (ITEOS THERAPEUTICS, priority 2014, dated 2017).
